Data reported in ChEMBL document CHEMBL1201862, “PubChem BioAssay data set” (2004).
Activity calls are given as the source filed them.

Legend:
[1] = molecular target: T1, Serine/threonine-protein phosphatase (Candida dubliniensis (strain CD36 / CBS 7987 / NCPF 3949 / NRRLY-17841) (Yeast), UniProt B9W6M3); assay: calcineurin pathway inhibitors in yeast reporter, dose response, S. cerevisiae, CDRE-lacZ, luminescence, secondary (AID 2388); assay type: functional, cell-based;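 note: yeast reporter cells carrying a calcineurin-responsive lacZ construct stimulated with calcium chloride; luminescent beta-galactosidase reporter signal in whole cells rather than isolated phosphatase activity; potency for inhibition where a drop in reporter signal means calcineurin blockade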
T1 sequence (B9W6M3 whole entry): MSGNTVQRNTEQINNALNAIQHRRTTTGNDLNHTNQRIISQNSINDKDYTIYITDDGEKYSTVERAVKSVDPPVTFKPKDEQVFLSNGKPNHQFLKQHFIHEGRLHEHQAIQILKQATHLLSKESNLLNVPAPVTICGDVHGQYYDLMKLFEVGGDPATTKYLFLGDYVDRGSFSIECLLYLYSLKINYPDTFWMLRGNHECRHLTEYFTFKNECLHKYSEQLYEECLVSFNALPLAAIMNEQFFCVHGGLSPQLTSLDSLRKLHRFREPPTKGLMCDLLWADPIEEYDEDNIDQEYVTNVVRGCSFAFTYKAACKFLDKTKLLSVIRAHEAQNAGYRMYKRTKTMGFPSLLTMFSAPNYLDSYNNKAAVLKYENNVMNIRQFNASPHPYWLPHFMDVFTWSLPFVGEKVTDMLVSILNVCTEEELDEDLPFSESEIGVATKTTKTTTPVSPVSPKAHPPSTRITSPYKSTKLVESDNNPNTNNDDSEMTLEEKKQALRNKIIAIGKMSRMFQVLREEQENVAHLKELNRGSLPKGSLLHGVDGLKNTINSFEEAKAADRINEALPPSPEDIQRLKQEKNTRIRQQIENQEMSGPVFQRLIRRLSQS

[2] = Counterscreen for AddAB inhibitors: absorbance-based bacterial cell-based high throughput dose response assay for inhibitors of bacterial viability. [Related pubchem assays (depositor defined):AID435030, AID449728, AID449731, AID488942, AID488955, AID488956]; assay type: functional
[3] = molecular target: Testis-specific serine/threonine-protein kinase 1 (Homo sapiens, UniProt Q9BXA7); assay type: functional
[4] = molecular target: Tyrosine-protein kinase receptor TYRO3 (Homo sapiens, UniProt Q06418); assay type: functional;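 note: TYRO3 value obtained as one member of a kinome-wide profiling panel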
Tyrosine-protein kinase receptor TYRO3, sequence (Q06418 whole entry): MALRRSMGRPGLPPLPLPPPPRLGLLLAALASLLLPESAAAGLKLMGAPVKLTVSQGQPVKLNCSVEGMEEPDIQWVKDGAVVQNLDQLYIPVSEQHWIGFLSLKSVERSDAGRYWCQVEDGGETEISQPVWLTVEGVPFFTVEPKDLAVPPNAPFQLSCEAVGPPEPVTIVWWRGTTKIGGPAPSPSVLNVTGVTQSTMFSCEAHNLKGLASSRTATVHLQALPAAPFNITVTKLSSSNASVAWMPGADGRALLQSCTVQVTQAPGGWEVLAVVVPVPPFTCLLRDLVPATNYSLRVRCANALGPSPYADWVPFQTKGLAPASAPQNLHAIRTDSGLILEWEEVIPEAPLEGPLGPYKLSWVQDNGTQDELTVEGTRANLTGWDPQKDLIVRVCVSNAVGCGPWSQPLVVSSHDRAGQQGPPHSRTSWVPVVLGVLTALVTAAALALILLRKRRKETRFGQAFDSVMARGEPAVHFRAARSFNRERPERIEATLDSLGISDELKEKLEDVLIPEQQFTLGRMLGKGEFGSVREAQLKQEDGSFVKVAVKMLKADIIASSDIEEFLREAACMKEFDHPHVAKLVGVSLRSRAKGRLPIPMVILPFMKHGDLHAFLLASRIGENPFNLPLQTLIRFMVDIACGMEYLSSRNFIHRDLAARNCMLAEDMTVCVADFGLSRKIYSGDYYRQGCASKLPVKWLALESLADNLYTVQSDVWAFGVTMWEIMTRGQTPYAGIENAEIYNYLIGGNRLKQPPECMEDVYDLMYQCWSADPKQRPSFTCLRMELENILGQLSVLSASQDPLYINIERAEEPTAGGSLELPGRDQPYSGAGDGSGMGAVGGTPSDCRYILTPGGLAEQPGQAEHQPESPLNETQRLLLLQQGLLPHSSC

Insulin receptor = Insulin receptor (Homo sapiens, UniProt P06213); assay type: functional;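 note: insulin receptor kinase tested as one member of a kinome-wide kinase panel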
[5] = molecular target: Insulin-like growth factor 1 receptor (Homo sapiens, UniProt P08069); assay: Navigating the Kinome. Panel member name: IGF1R; assay type: functional
[6] = molecular target: MAP/microtubule affinity-regulating kinase 3 (Homo sapiens, UniProt P27448); assay type: functional;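 note: MARK3 affinity measured as one member of a kinome panel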
[7] = molecular target: Vascular endothelial growth factor receptor 1 (Homo sapiens, UniProt P17948); assay type: functional;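 note: measured within a kinome-wide profiling panel, FLT1 as the panel member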
[8] = molecular target: Mast/stem cell growth factor receptor Kit (Homo sapiens, UniProt P10721); assay type: functional;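 note: KIT entry within a kinase panel assay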
[9] = molecular target: Interleukin-1 receptor-associated kinase 1 (Homo sapiens, UniProt P51617); assay type: functional;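 note: IRAK1 tested as one member of a kinome panel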
[10] = molecular target: Maternal embryonic leucine zipper kinase (Homo sapiens, UniProt Q14680); assay type: functional
[11] = molecular target: 5'-AMP-activated protein kinase catalytic subunit alpha-1 (Homo sapiens, UniProt Q13131); assay type: functional
[12] = molecular target: Fibroblast growth factor receptor 3 (Homo sapiens, UniProt P22607); assay type: functional
[13] = molecular target: Mitogen-activated protein kinase kinase kinase kinase 4 (Homo sapiens, UniProt O95819); assay type: functional
[14] = molecular target: Megakaryocyte-associated tyrosine-protein kinase (Homo sapiens, UniProt P42679); assay type: functional;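 note: affinity measured as one member of a kinase panel (Navigating the Kinome) against MATK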
[15] = molecular target: Serine/threonine-protein kinase BRSK1 (Homo sapiens, UniProt Q8TDC3); assay type: functional;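 note: measured within a kinome-wide kinase panel, with the target listed as KIAA1811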
Aurora kinase A = Aurora kinase A (Homo sapiens, UniProt O14965); assay type: functional;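 note: value from the Navigating the Kinome kinase panel profiling, panel entry STK6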
[16] = molecular target: Serine/threonine-protein kinase Chk1 (Homo sapiens, UniProt O14757); assay type: functional;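 note: measured as one member of a kinome-wide kinase profiling panel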
[17] = molecular target: Homeodomain-interacting protein kinase 4 (Homo sapiens, UniProt Q8NE63); assay type: functional
Homeodomain-interacting protein kinase 4, sequence (Q8NE63 whole entry): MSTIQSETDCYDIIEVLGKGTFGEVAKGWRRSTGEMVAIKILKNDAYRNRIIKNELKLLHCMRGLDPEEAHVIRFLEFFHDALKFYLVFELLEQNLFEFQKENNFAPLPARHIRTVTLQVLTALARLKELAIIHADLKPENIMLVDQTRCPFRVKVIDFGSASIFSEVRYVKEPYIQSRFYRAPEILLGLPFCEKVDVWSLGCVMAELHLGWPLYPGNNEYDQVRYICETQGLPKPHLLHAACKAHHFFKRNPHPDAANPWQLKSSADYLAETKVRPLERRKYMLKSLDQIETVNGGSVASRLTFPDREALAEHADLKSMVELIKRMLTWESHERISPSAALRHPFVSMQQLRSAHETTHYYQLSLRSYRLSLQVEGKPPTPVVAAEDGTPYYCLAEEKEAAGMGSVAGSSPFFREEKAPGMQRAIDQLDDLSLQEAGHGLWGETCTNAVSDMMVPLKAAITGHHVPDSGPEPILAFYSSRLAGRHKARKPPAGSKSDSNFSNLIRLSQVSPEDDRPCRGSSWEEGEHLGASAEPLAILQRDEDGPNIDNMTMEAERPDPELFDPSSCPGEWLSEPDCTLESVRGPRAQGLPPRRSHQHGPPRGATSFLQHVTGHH

[18] = molecular target: RAC-gamma serine/threonine-protein kinase (Homo sapiens, UniProt Q9Y243); assay type: functional
[19] = molecular target: Lymphokine-activated killer T-cell-originated protein kinase (Homo sapiens, UniProt Q96KB5); assay type: functional;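 note: value comes from a kinase panel screen in which TOPK was one of the panel members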
[20] = molecular target: Serine/threonine-protein kinase TAO1 (Homo sapiens, UniProt Q7L7X3); assay type: functional
[21] = molecular target: Tyrosine-protein kinase BTK (Homo sapiens, UniProt Q06187); assay type: functional
Tyrosine-protein kinase BTK, sequence (Q06187 whole entry): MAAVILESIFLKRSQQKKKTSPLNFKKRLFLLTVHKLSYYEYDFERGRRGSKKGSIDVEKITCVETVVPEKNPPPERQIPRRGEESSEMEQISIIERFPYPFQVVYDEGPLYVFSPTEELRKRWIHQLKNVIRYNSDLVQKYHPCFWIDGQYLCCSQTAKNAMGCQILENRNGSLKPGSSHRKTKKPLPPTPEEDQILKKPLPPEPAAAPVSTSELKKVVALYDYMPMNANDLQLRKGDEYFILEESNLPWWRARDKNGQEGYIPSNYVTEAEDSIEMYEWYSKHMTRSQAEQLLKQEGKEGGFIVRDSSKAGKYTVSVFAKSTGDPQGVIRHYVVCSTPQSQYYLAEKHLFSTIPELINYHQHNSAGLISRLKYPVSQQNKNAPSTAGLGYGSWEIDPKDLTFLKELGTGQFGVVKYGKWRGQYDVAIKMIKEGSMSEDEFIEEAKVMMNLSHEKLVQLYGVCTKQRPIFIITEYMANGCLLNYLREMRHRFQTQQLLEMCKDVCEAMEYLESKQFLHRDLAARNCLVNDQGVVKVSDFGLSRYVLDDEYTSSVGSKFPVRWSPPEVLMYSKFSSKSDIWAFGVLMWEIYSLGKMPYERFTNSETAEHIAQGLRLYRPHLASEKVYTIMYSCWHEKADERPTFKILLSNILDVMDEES

[22] = molecular target: Serine/threonine-protein kinase N2 (Homo sapiens, UniProt Q16513); assay type: functional
[23] = molecular target: Tyrosine-protein kinase Fer (Homo sapiens, UniProt P16591); assay type: functional;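 note: FER tested as one member of a kinome panel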
[24] = molecular target: BDNF/NT-3 growth factors receptor (Homo sapiens, UniProt Q16620); assay type: functional;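 note: NTRK2 measured as one member of a broad kinome-wide kinase profiling panel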
[25] = molecular target: Receptor tyrosine-protein kinase erbB-4 (Homo sapiens, UniProt Q15303); assay type: functional;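 note: ERBB4 member of a kinome-wide kinase profiling panel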
Receptor tyrosine-protein kinase erbB-4, sequence (Q15303 whole entry): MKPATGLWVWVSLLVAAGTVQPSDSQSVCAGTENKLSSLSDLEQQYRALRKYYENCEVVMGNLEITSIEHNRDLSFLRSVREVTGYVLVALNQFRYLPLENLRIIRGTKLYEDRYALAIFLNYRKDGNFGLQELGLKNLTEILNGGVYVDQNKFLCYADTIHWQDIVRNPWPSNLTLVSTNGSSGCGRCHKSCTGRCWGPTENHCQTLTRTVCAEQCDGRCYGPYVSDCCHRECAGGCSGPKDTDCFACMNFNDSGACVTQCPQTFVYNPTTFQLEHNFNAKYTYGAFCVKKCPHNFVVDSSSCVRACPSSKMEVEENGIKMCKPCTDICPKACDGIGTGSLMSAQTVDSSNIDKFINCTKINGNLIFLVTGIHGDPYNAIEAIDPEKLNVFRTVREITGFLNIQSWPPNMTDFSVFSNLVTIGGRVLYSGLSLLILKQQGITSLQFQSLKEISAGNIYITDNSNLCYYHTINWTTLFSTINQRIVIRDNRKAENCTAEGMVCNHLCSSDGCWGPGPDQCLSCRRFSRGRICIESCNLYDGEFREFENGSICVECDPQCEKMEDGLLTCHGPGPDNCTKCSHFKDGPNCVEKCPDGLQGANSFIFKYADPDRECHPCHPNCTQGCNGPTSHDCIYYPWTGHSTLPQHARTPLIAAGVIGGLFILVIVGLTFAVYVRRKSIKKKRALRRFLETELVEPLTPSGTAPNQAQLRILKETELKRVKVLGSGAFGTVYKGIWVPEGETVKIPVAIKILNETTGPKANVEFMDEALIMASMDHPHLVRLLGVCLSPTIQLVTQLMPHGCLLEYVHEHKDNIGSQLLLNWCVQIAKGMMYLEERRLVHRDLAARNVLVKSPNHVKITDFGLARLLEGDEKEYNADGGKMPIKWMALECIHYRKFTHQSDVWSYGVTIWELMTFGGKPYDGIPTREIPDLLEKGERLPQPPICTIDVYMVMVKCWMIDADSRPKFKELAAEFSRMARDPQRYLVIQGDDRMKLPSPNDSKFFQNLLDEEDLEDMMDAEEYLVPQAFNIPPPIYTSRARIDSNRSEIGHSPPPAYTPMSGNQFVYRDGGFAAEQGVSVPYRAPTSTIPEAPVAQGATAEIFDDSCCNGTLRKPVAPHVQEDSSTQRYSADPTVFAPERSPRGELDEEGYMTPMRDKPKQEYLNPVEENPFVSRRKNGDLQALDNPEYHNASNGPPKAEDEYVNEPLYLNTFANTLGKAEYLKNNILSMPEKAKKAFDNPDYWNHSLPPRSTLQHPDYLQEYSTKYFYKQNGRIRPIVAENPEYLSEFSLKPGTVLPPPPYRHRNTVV

[26] = molecular target: Cell division cycle 7-related protein kinase (Homo sapiens, UniProt O00311); assay type: functional;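 note: value obtained from a kinome-wide kinase panel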
[27] = molecular target: Serine/threonine-protein kinase pim-2 (Homo sapiens, UniProt Q9P1W9); assay type: functional;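 note: value comes from a broad kinase panel profiling study in which PIM2 was one of the panel members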
[28] = molecular target: Calcium/calmodulin-dependent protein kinase type II subunit delta (Homo sapiens, UniProt Q13557); assay type: functional
Calcium/calmodulin-dependent protein kinase type II subunit delta, sequence (Q13557 whole entry): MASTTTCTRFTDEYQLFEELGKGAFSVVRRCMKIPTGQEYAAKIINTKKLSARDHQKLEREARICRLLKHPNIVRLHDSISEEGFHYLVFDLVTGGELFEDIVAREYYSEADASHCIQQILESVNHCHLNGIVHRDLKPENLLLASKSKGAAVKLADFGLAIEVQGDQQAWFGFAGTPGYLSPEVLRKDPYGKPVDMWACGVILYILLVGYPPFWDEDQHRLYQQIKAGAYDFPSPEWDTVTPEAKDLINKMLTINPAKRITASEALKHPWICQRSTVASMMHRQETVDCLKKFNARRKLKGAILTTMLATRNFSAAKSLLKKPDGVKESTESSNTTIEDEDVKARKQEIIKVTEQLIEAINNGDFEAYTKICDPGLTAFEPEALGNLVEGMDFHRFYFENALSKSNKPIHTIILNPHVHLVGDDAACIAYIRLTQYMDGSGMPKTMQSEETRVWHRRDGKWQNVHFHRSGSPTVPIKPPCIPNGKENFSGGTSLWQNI

[29] = molecular target: Interleukin-1 receptor-associated kinase 4 (Homo sapiens, UniProt Q9NWZ3); assay type: functional
[30] = molecular target: Serine/threonine-protein kinase MRCK alpha (Homo sapiens, UniProt Q5VT25); assay type: functional
[31] = molecular target: Ribosomal protein S6 kinase alpha-5 (Homo sapiens, UniProt O75582); assay type: functional
[32] = molecular target: Tyrosine-protein kinase JAK2 (Homo sapiens, UniProt O60674); assay type: functional;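 note: JAK2 tested as one member of a kinase panel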
[33] = molecular target: Serine/threonine-protein kinase Nek4 (Homo sapiens, UniProt P51957); assay type: functional
Serine/threonine-protein kinase Nek4, sequence (P51957 whole entry): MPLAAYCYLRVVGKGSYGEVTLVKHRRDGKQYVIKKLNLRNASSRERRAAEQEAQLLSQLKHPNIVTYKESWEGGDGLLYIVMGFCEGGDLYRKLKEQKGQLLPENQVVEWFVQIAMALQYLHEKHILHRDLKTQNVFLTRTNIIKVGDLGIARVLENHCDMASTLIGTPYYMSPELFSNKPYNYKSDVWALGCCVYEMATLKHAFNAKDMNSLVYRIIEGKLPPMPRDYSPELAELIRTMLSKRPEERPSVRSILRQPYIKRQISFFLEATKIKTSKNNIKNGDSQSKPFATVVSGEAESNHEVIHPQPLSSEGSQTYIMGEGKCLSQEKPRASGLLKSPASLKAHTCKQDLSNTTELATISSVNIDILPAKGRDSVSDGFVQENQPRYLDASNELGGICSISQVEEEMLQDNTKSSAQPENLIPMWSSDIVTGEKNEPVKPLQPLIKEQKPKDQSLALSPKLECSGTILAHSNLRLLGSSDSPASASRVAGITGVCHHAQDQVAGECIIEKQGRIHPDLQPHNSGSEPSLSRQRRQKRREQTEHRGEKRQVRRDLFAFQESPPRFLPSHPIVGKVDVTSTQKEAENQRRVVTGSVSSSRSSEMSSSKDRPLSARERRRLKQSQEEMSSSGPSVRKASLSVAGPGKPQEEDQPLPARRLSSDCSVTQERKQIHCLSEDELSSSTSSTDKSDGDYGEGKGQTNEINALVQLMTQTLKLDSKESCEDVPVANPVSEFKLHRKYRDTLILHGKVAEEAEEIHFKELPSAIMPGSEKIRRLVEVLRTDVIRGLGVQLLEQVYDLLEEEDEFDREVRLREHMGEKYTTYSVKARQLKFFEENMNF

[34] = molecular target: Mitogen-activated protein kinase 8 (Homo sapiens, UniProt P45983); assay type: functional;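 note: value comes from one member of a kinome-wide kinase profiling panel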

**Q.** For COc1ccc(-c2nnc(NC(=O)c3ccc(F)cc3)o2)cc1, which EC50 [1] is on record?
**A.** > 180000 nM (inactive)

**Q.** And the IC50 [2]?
**A.** > 118000 nM (inactive)

**Q.** With CCn1c(-c2nonc2N)nc2cnc(Oc3cccc(NC(=O)c4ccc(OCCN5CCOCC5)cc4)c3)cc21 [GSK-269962A] as the molecule, how does the Ki [3] read?
**A.** 50.1 nM (active)

**Q.** And the Ki [4]?
**A.** > 2000 nM (inactive)

**Q.** And the Ki (Insulin receptor)?
**A.** > 5010 nM (inactive)

**Q.** And the Ki [5]?
**A.** > 2000 nM (inactive)

**Q.** And the Ki [6]?
**A.** 1580 nM (active)

**Q.** What about the Ki [7] of the same molecule?
**A.** > 398 nM (inactive)

**Q.** What about the Ki [8] of the same molecule?
**A.** > 1260 nM (inactive)

**Q.** What about the Ki [9] of the same molecule?
**A.** > 7940 nM (inactive)

**Q.** And the Ki [10]?
**A.** > 1580 nM (inactive)

**Q.** What about the Ki [11] of the same molecule?
**A.** > 1580 nM (inactive)

**Q.** What about the Ki [12] of the same molecule?
**A.** > 2000 nM (inactive)

**Q.** What about the Ki [13] of the same molecule?
**A.** > 10000 nM (inactive)

**Q.** And the Ki [14]?
**A.** > 2000 nM (inactive)

**Q.** And the Ki [15]?
**A.** > 10000 nM (inactive)

**Q.** What about the Ki (Aurora kinase A) of the same molecule?
**A.** 501 nM (active)

**Q.** What about the Ki [16] of the same molecule?
**A.** > 7940 nM (inactive)

**Q.** What about the Ki [17] of the same molecule?
**A.** 5010 nM (active)

**Q.** What about the Ki [18] of the same molecule?
**A.** 2000 nM (active)

**Q.** And the Ki [19]?
**A.** > 10000 nM (inactive)

**Q.** What about the Ki [20] of the same molecule?
**A.** > 10000 nM (inactive)

**Q.** What about the Ki [21] of the same molecule?
**A.** > 1260 nM (inactive)

**Q.** And the Ki [22]?
**A.** 25.1 nM (active)

**Q.** What about the Ki [23] of the same molecule?
**A.** > 1580 nM (inactive)

**Q.** What about the Ki [24] of the same molecule?
**A.** > 5010 nM (inactive)

**Q.** And the Ki [25]?
**A.** > 3980 nM (inactive)

**Q.** What about the Ki [26] of the same molecule?
**A.** 79.4 nM (active)

**Q.** And the Ki [27]?
**A.** > 1580 nM (inactive)

**Q.** What about the Ki [28] of the same molecule?
**A.** > 6310 nM (inactive)

**Q.** What about the Ki [29] of the same molecule?
**A.** > 10000 nM (inactive)

**Q.** What about the Ki [30] of the same molecule?
**A.** 158 nM (active)

**Q.** And the Ki [31]?
**A.** 63.1 nM (active)

**Q.** What about the Ki [32] of the same molecule?
**A.** > 1580 nM (inactive)

**Q.** And the Ki [33]?
**A.** > 6310 nM (inactive)

**Q.** What about the Ki [34] of the same molecule?
**A.** > 3160 nM (inactive)
